According to publication PMC5769128, “Human UDP-Glucuronosyltransferase 2B4 and 2B7 Are Responsible for Naftopidil Glucuronidation in Vitro” (Frontiers in Pharmacology, 2018):
Like-named read-outs stand apart in the source and are kept apart here. One block for each molecule: values may come before it.

Experiments:
[1] = system: UGT2B4/UGT2B7 (NAF glucuronidation); test: Inhibition of the glucuronidation of NAF enantiomers by specific UGT inhibitors in pooled HLM; settings: human, pooled human liver microsomes, pH 7.5, probe R(+)-NAF 50 μM, S(-)-NAF 20 μM
animals = system: animals; parameters: method as in Himmel, 1994; settings: 100 mg/day, ref Himmel, 1994; cited from earlier work
[2] = human, after oral treatment; no reference given; cited from earlier work
[3] = human, ref Himmel, 1994, cited from earlier work
[4] = rat, ref Himmel, 1994, cited from earlier work
recombinant human UGT1A9 = molecular target: T1, recombinant human UGT1A9 (Homo sapiens, UniProt O60656); test: Kinetics of NAF enantiomer glucuronidation by recombinant UGT1A9; type: in vitro ADME
T1 construct: purchased BD Gentest
T1 sequence (O60656 26-530): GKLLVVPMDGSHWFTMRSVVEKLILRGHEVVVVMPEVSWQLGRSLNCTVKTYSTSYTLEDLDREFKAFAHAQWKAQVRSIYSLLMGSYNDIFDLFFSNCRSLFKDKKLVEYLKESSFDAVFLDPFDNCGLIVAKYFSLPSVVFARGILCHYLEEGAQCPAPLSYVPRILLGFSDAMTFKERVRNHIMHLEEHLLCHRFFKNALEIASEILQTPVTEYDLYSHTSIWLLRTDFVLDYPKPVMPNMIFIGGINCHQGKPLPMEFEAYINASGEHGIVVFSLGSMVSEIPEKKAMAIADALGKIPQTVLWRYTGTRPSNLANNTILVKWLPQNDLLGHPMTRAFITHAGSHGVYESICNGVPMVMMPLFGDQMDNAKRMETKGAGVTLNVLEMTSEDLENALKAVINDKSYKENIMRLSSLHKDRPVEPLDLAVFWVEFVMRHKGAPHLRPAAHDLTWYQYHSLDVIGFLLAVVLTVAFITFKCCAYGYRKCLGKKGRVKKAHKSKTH
Procedure: (§1) All glucuronidation assays were conducted in an incubation volume of 200 μL. Incubations were performed at 37°C in 50 mM Tris–HCl buffer (pH 7.5) with 10 mM magnesium chloride, 1 mg protein/mL of enzyme (microsomes and recombinant human UGTs), alamethicin (100 μg of alamethicin/mg microsomal protein), and NAF enantiomers (2.5–80 μM). The reaction was initiated by the addition of UDPGA (5 mM) and incubated at 37°C in a shaking water bath for 45 min. The reaction was terminated by the addition of 200 μL of ice-cold acetonitrile containing the IS (1 μM) and then centrifuged at 5000 ×g for 10 min at 4°C. The supernatant fraction was injected into the RRLC-MS/MS apparatus. Protein concentration (0.5–2 mg/mL) and incubation time (15–180 min) were optimized in preliminary studies to be within initial linear rate conditions.
(§2) Kinetic parameters were assessed in the HLM, RLM, HKM, RKM, and recombinant human UGTs (UGT2B4, 2B7, and 1A9).

[5] = system: human kidney microsomes (HKM); test: Kinetics of NAF enantiomer glucuronidation by human kidney microsomes; type: in vitro ADME
Procedure: as §1, §2

[6] = system: human liver microsomes (HLM); test: Kinetics of NAF enantiomer glucuronidation by human liver microsomes; type: in vitro ADME
Procedure: as §1, §2

UGT2B7 = molecular target: T2, UGT2B7 (Homo sapiens, UniProt P16662); test: Kinetics of NAF enantiomer glucuronidation by recombinant UGT2B7; type: in vitro ADME; parameters: purchased BD Gentest
T2 sequence (P16662 24-529): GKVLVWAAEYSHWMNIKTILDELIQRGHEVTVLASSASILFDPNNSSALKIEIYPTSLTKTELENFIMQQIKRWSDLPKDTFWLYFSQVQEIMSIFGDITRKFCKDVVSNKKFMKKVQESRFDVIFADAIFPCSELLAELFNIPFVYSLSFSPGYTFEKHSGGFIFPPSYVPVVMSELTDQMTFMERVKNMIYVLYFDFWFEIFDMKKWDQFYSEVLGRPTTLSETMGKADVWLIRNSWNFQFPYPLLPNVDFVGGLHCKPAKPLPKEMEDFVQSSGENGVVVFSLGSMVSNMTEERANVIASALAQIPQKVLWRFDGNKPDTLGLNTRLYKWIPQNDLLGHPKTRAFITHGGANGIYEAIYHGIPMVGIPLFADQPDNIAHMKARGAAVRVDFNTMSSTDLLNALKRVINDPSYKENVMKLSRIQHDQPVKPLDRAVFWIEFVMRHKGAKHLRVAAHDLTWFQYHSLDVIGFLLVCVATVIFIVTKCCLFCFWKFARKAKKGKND
Procedure: as §1, §2

[7] = parameters: method as in Liu et al., 2017; settings: rat plasma; ref Liu et al., 2017; cited from earlier work
recombinant human UGT2B4 = molecular target: T3, recombinant human UGT2B4 (Homo sapiens, UniProt P06133); test: Kinetics of NAF enantiomer glucuronidation by recombinant UGT2B4; type: in vitro ADME
T3 construct: purchased BD Gentest
T3 sequence (P06133 24-528): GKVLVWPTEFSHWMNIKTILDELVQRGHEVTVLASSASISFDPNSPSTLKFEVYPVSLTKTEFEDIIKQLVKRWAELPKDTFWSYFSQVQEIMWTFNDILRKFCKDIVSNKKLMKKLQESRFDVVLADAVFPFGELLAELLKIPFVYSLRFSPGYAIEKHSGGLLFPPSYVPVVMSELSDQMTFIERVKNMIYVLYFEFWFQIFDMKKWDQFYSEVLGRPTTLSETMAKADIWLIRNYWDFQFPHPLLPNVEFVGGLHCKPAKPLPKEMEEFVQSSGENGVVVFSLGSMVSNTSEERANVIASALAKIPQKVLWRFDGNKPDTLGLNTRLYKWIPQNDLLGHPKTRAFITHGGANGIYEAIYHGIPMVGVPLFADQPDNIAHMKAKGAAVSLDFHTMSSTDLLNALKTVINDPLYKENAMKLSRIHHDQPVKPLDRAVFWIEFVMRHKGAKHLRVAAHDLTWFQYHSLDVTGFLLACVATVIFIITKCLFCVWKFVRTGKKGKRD
Procedure: as §1, §2

[8] = system: NAF glucuronidation in pooled HLM (UGT2B4/UGT2B7, UGT1A9); test: Inhibition of the glucuronidation of NAF enantiomers by specific UGT inhibitors in pooled HLM; settings: inhibitor 5, 50 μM; pooled HLM
[9] = substrate: COc1ccccc1N1CCN(C[C@@H](O)COc2cccc3ccccc23)CC1; test: cells, lysate or membranes named; settings: pH 7.5, 37.0 °C
[10] = substrate: COc1ccccc1N1CCN(C[C@H](O)COc2cccc3ccccc23)CC1; test: cells, lysate or membranes named; settings: pH 7.5, 37.0 °C
[11] = other: NAF glucuronidation by UGT2B7
[12] = other: NAF glucuronidation by UGT2B4

inhibition at 45 min, 0.25 mM [1]: ~35%
inhibition at 45 min, 2.5 mM [1]: ~55%
Molecule: OC(Cn1cncn1)(Cn1cncn1)c1ccc(F)cc1F [Fluconazole, fluconazole]

Molecule: COc1ccccc1N1CCN(CC(O)COc2cccc3ccccc23)CC1 (stereo not shown) [NAF, Naftopidil]
adverse findings at high doses (animals): reduced food consumption and body weight gain, apathy, diarrhea, proteinuria, and slightly increased levels of alkaline phosphatase
plasma levels [2]: < 10 µM
bioavailability ([3]; Liu et al., 2015, 2017): < 20%
bioavailability [3]: 20%
bioavailability ([4]; Liu et al., 2015, 2017): 6.8–14.5%
bioavailability [4]: 9%

Kinetics type (recombinant human UGT1A9): Substrate inhibition
Vmax (recombinant human UGT1A9): 34 ± 2 pmol/min/mg
Kinetics type (UGT2B7): Substrate inhibition
Vmax (UGT2B7): 1043 ± 152 pmol/min/mg
Kinetics type (recombinant human UGT2B4): Substrate inhibition
Vmax (recombinant human UGT2B4): 264 ± 38 pmol/min/mg
Molecule: COc1ccccc1N1CCN(CC(COc2cccc3ccccc23)OC2OC(C(=O)O)C(O)C(O)C2O)CC1 (stereo not drawn) [R(+)-NAF-G]
Kinetics type [5]: Michaelis–Menten
Vmax [5]: 2786 ± 138 pmol/min/mg
Kinetics type [6]: Michaelis–Menten
Vmax [6]: 3330 ± 131 pmol/min/mg
level of glucuronide relative to parent enantiomer [7]: six

Kinetics type (recombinant human UGT1A9): Michaelis–Menten
Vmax (recombinant human UGT1A9): 6.0 ± 2.2 pmol/min/mg
Kinetics type (UGT2B7): Substrate inhibition
Vmax (UGT2B7): 1331 ± 298 pmol/min/mg
Kinetics type (recombinant human UGT2B4): Substrate inhibition
Vmax (recombinant human UGT2B4): 1976 ± 158 pmol/min/mg
Molecule: COc1ccccc1N1CCN(CC(COc2cccc3ccccc23)OC2OC(C(=O)O)C(O)C(O)C2O)CC1 (stereo not drawn) [S(-)-NAF-G]
Kinetics type [5]: Substrate inhibition
Vmax [5]: 1957 ± 100 pmol/min/mg
Kinetics type [6]: Michaelis–Menten
Vmax [6]: 3472 ± 129 pmol/min/mg
level of glucuronide relative to parent enantiomer [7]: threefold

Molecule: O=C(O)c1cccnc1Nc1cccc(C(F)(F)F)c1 [niflumic acid]
Inhibition of NAF glucuronidation [8]: could not inhibit NAF glucuronidation

B1: recombinant human UGT2B7 (Homo sapiens) (protein)
chain: GKVLVWAAEYSHWMNIKTILDELIQRGHEVTVLASSASILFDPNNSSALKIEIYPTSLTKTELENFIMQQIKRWSDLPKDTFWLYFSQVQEIMSIFGDITRKFCKDVVSNKKFMKKVQESRFDVIFADAIFPCSELLAELFNIPFVYSLSFSPGYTFEKHSGGFIFPPSYVPVVMSELTDQMTFMERVKNMIYVLYFDFWFEIFDMKKWDQFYSEVLGRPTTLSETMGKADVWLIRNSWNFQFPYPLLPNVDFVGGLHCKPAKPLPKEMEDFVQSSGENGVVVFSLGSMVSNMTEERANVIASALAQIPQKVLWRFDGNKPDTLGLNTRLYKWIPQNDLLGHPKTRAFITHGGANGIYEAIYHGIPMVGIPLFADQPDNIAHMKARGAAVRVDFNTMSSTDLLNALKRVINDPSYKENVMKLSRIQHDQPVKPLDRAVFWIEFVMRHKGAKHLRVAAHDLTWFQYHSLDVIGFLLVCVATVIFIVTKCCLFCFWKFARKAKKGKND
Km [9, 11]: 21 µM
Vmax [9, 11]: 1043 pmol/min/mg
Vmax/Km [9, 11]: 50 µL/min/mg
Km [10, 11]: 38 µM
Vmax [10, 11]: 1331 pmol/min/mg

B2: recombinant human UGT2B4 (Homo sapiens) (protein)
chain: GKVLVWPTEFSHWMNIKTILDELVQRGHEVTVLASSASISFDPNSPSTLKFEVYPVSLTKTEFEDIIKQLVKRWAELPKDTFWSYFSQVQEIMWTFNDILRKFCKDIVSNKKLMKKLQESRFDVVLADAVFPFGELLAELLKIPFVYSLRFSPGYAIEKHSGGLLFPPSYVPVVMSELSDQMTFIERVKNMIYVLYFEFWFQIFDMKKWDQFYSEVLGRPTTLSETMAKADIWLIRNYWDFQFPHPLLPNVEFVGGLHCKPAKPLPKEMEEFVQSSGENGVVVFSLGSMVSNTSEERANVIASALAKIPQKVLWRFDGNKPDTLGLNTRLYKWIPQNDLLGHPKTRAFITHGGANGIYEAIYHGIPMVGVPLFADQPDNIAHMKAKGAAVSLDFHTMSSTDLLNALKTVINDPLYKENAMKLSRIHHDQPVKPLDRAVFWIEFVMRHKGAKHLRVAAHDLTWFQYHSLDVTGFLLACVATVIFIITKCLFCVWKFVRTGKKGKRD
Km [9, 12]: 51 µM
Vmax/Km [9, 12]: 5.2 µL/min/mg
Km [10, 12]: 55 µM
Vmax [10, 12]: 1976 pmol/min/mg
